For the data set the following is noted: 298.15 K, Liquid, Vibrating tube method.

This is an account of results in the NIST ThermoML archive (doi:10.1016/j.fluid.2006.05.027).

The structures appear in SMILES notation. Numbers after ± are expanded uncertainties.

Turning to `C=C(C)C1CC=C(C)CC1` (configuration not stated) [1-methyl-4-(1-methylethenyl)cyclohexene], the mass density runs as follows: (7640 kPa) 844 ± 0.7 kg/m3; (10000 kPa) 845.6 ± 0.7 kg/m3.

One may read the mass density as mass per unit of volume.
